Experimental findings from paper PMC6385020 (Molecules, 2019) are described below.

The subject of assay [1] is G4-DNA structures (F-21-T, F-myc-T, F-21CTA-T, F-CEB25-WT-T). The experiment in a line: FRET-melting assay (ligand-induced stabilization). Format: binding, human. As to conditions: 1 µM ligand, 0.2 µM DNA, all G4-DNA structures, K+1 or K+10 buffer. As for the experimental part: (§1) For the G4-FID assay, the oligonucleotides were dissolved in K^+100 buffer (10 mM lithium cacodylate buffer pH 7.3, 100 mM KCl, 1% DMSO). Oligonucleotide concentrations were determined on the basis of their absorbance at 260 nm. For the fluorimetric titration, the oligonucleotides were dissolved in K^+100 buffer without DMSO. For the FRET-melting assay, the oligonucleotides were dissolved in K^+1 buffer (10 mM lithium cacodylate buffer pH 7.3, 1 mM KCl, 99 mM LiCl) except for F-21-T. F-21-T was dissolved in K^+10 buffer (10 mM lithium cacodylate buffer pH 7.3, 10 mM KCl, 90 mM LiCl).
(§2) Prior to use, all oligonucleotides were pretreated by heating at 95 °C for 5 min, then rapidly cooled to 4 °C to favor the intramolecular folding by kinetic trapping. Duplex-DNA ds26 was prepared by heating the self-complementary strand at 90 °C for 5 min in K^+1 buffer followed by a slow cooling over 6 h.
The stabilization of the compounds with a quadruplex-structure was monitored via FRET-melting assay performed in 96-well plates on a real-time PCR apparatus 7900HT Fast Real-Time PCR System as follows: 5 min at 25 °C and then an increase of 0.5 °C every minute until 95 °C. Each experimental condition was tested and replicated in a volume of 25 μL for each sample. The FRET-melting assay was performed with three dual fluorescently labeled DNA oligonucleotide sequences oligonucleotides. The donor fluorophore was 6-carboxyfluorescein, FAM, and the acceptor fluorophore was 6-carboxytetramethylrhodamine, TAMRA. The 96-well plates (Applied Biosystems) were prepared by aliquoting the annealed DNA (0.2 μM in K^+1 or K^+10 buffer) into each well, followed by 1 μL of the ligand ([…] (5 eq) in DMSO). For competition experiments, duplex competitors were added to 200 nM quadruplex sequences at final concentrations of 3.0 μM (15 eq) and 10.0 μM (50 eq), with a total reaction volume of 25 μL, with the labeled oligonucleotide (0.2 μM) and the ligand (1 μM). Measurements were made with excitation at 492 nm and detection at 516 nm. The change in the melting temperature at 1.0 μm compound concentration, ΔTm (1.0 μM), was calculated from at least two experiments by subtraction of the blank from the averaged melting temperature of each compound (1.0 μM). The final analysis of the data was carried out using Origin Pro 8.6 data analysis.

Assay [2] relates to 21CTA human telomeric sequence variant G4. Format: binding. The following applies: K+100 buffer; for % of TO displacement at 1 µM of ligand: TO 2 eq; for % of TOPRO3 displacement at 1 µM of ligand: TO-PRO-3 2 eq. The method, then: as §1, §2
Each G4-FID assay was performed in a 96-well Non-Binding Surface black with black bottom polystyrene microplates (Corning). Every ligand was tested on a line of the microplate, in duplicate. The microplate was filled with (a) K^+100 solution (qs for 200 μL), (b) 10 μL of a solution of pre-folded oligonucleotides (5 μM) and fluorescent probe (TO/TO-PRO-3 (10 μM—2 eq) or PhenDV (7,5 µM—1.5 eq)), and (c) an extemporaneously prepared 5 μM ligand solution in K^+100 buffer (0 to 100 μL) along the line of the microplate, i.e., from column A to column H: 0, 0.125, 0.25, 0.375, 0.5, 0.625, 0.75, 1.0, 1.25, 1.5, 2.0, and 2.5 μM. After 5 min of orbital shaking at 500 rpm, fluorescence is measured using the following experimental parameters: positioning delay of 0.5 s, 20 flashes per well, emission/excitation filters for TO at 485/520, TO-PRO-3 at 620/670, and PhenDV at 355/520 gain adjusted at 80% of the fluorescence from the most fluorescent well (i.e., a well from column A for TO and a well from column H).
The percentage of TO displacement is calculated from the fluorescence intensity (F), using (1) % TO displacement=1−F/F0 where F0 is the fluorescence from the fluorescent probe bound to DNA without added ligand.
The PhenDV displacement is calculated from the fluorescence intensity F; F(ligand+probe), which refers to the fluorescence of the probe in presence of the ligand (without G4); and F0, which is the fluorescence without added ligand. The term F(ligand+probe) is necessary as the ligand can quench the fluorescence of the probe. The percentage of displacement is then plotted as a function of the concentration of the added ligand. The DNA affinity was evaluated by the concentration of ligand required to decrease the fluorescence of the probe by 50%, was noted DC50, and was determined after non-linear fitting of the displacement curve.

Assay [3] has as its system c-myc G4 DNA. The experiment in a line: Platination of c-myc followed by denaturing gel electrophoresis. Format: biochemical. The following applies: for platination products on gel electrophoresis: c-myc 100 µM, 18 h at 32 °C, K+100 buffer; for platination of c-myc during melting temperature experiments: 0.2 µM c-myc, 1 µM complex, 25 to 95 °C gradient, K+1 buffer; for selectivity of platination, c-myc G4 vs duplex ds26 (competition kinetics): c-myc 0.2 µM, ds26 10 µM. The method, then:
The five platinum complexes were incubated for 18 h at 32 °C with pre-folded 5’-end ^32P radiolabeled c-myc DNA (10 or 100 µM) and loaded on denaturing polyacrylamide gel electrophoresis (Figure 4).
Two main accelerated bands (A1 and A2) were detected for Pt-ttpy and three were detected for Pt-tpy (B1, B2, and B3) in the presence of 10 µM of DNA. However, for Pt-BisQ, two accelerated bands (C1 and C2) and one retarded band (C3) were only detected at higher DNA concentration (100 µM). It is noteworthy that c-myc platination products migrate faster that the non-platinated G4, resulting in a stark contrast if compared to 22AG in which platination products migrate slower (Figure 2): this is due to the presence of the still folded G4 structures that resist to denaturation, as already found. […] The platination sites of Pt-ttpy, Pt-tpy, and Pt-BisQ were determined by 3’-exonuclease digestion, which stops at the platinated base, followed by a de-platination treatment of the digested fragments with NaCN (Figures S6 and S7). The exact length of the digested de-platinated fragment was deduced from its migration compared with the one of a digestion ladder of the c-myc sequence on a denaturating gel electrophoresis.
The oligonucleotides were 5’-end-labelled using a polynucleotide kinase and (γ^32P)-ATP (Perkin Helmer). The reaction products were purified by electrophoresis on 20% denaturing gel. Sample platinations were prepared by folding a mixture of 5’-end-radiolabeled DNA and 10 µM or 100 µM of non-radiolabeled material in 100 mM KClO4 or 100 mM KCl solution except for the platination reaction in the denaturing temperature conditions. The folding was achieved by heating the samples at 90 °C for 5 min, followed by slow cooling to room temperature over the course of 2 h to induce the formation of the quadruplex structure. It was then incubated with platinum complexes, and platinated products were separated by electrophoresis on 15% denaturing gel. They were then eluted from gel, precipitated, treated by 3’-exonuclease at 37 °C for 30 min, and loaded on a 20% denaturing gel. The digested fragments were eluted from this gel precipitated, treated over night by NaCN 0.2M, precipitated, and loaded once again on a 20% denaturing gel. Gels were scanned using a STORM860 (Molecular Dynamics).

Take `CN(C)CCCNCc1ccc(-c2cc(-c3ccccn3)nc(-c3ccccn3)c2)cc1.[Cl-].[Cl][Pt+]` [Pt-ctpy]: in assay [1], the “∆Tm (ligand-induced stabilization, FRET-melting)” value (from here on “∆Tm”) was over 10 °C. Further, in assay [2], the “% of TO displacement at 1 µM of ligand” value is listed as 93% and the “% of TOPRO3 displacement at 1 µM of ligand” value (from here on “% of TOPRO3 displacement”) was 83%. Moreover, in assay [3], the “platination products on gel electrophoresis” value (shortened to “platination products”) was “Non-defined platination products”.
Regarding `Cc1ccc(-c2cc(-c3ccccn3)nc(-c3ccccn3)c2)cc1.[Cl-].[Cl][Pt+]` [Pt-ttpy], the “∆Tm” value in assay [1] was over 10 °C. Moreover, in assay [2], the “% of TO displacement at 1 µM of ligand” value is given as 87% and the “% of TOPRO3 displacement” value is given as 62%. Also, in assay [3], the “platination of c-myc during melting temperature experiments” value was “clearly platinate”. In assay [3] (K+10 buffer), the “selectivity of platination, c-myc G4 vs duplex ds26 (competition kinetics)” value is recorded as “high selectivity”. In assay [3] (c-myc* 0.2 µM, K+10 buffer, 25 °C), the “incubation time to metallate a large amount of c-myc*” value was at most 120 min.
For the compound `CN(C)c1ccc(/C=C/c2cc(-c3ccccn3)nc(-c3ccccn3)n2)cc1.[Cl-].[Cl][Pt+]` [Pt-vpym, Chloro-(E)-4-(2-(2,6-di(pyridin-2-yl)pyrimidin-4-yl)vinyl)-N,N-dimethylaniline-platinum(II) Chloride], in assay [1], the “∆Tm” value was under 10 °C. Also, in assay [2], the “% of TOPRO3 displacement” value came to 32%. The “platination products” value in assay [3] is “Non-defined platination products”.
As for `[Cl-].[Cl][Pt+].c1ccc(-c2cccc(-c3ccccn3)n2)nc1` [Pt-tpy], the “∆Tm” value in assay [1] was under 10 °C. In addition, in assay [2], the “% of TO displacement at 1 µM of ligand” value is on record as 24% and the “% of TOPRO3 displacement” value came out at 23%. In addition, the “platination of c-myc during melting temperature experiments” value in assay [3] is reported as “clearly platinate”. In addition, the “selectivity of platination, c-myc G4 vs duplex ds26 (competition kinetics)” value in assay [3] (K+10 buffer) was “low binding selectivity”.
`[Cl-].[Cl][Pt+].c1ccc(-c2cc(-c3ccc(OCCN4CCCC4)cc3)nc(-c3ccccn3)n2)nc1` [Pt-cpym, Chloro-(2,4-di(pyridin-2-yl)-6-(4-(2-(pyrrolidin-1-yl)ethoxy)phenyl)pyrimidine)-platinum(II) Chloride]: the “∆Tm” value in assay [1] is under 10 °C. Further, in assay [2], the “% of TO displacement at 1 µM of ligand” value was found to be 82% and the “% of TOPRO3 displacement” value was determined as 25%. Also, in assay [3], the “platination products” value was “Non-defined platination products”.
